Among the data in PubChem BioAssay AID179 (DTP/NCI, 2004) are EC50, IC50 and outcome values, retold here.

The source made the active and inactive calls.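 Rule for the calls: active = compounds giving half or more protection of infected cells from virus-caused growth loss, again on retest; inactive = the rest.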 Where a SMILES comes first, the peptide text is derived from it. The star is where a group is joined. Cbz = O=C(OCc1ccccc1)*; NHNH2 = NN* Some results are limits rather than exact numbers.

The assay has as its system CEM cells HIV-1 protection, formazan growth assay. As to the kind of experiment: NCI AIDS Antiviral Assay. The note with it: for IC50: measured here: growth of uninfected CEM cells. The method in brief: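 Protection of CEM cells against HIV-1 measured as cell growth via soluble formazan read-out, with five concentrations tested on both infected and uninfected cells; failure to protect may reflect toxicity.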

The term EC50 denotes the midpoint of the concentration-response curve. Usually IC50 stands for the concentration that inhibits the measured activity by half. Higher therefore signals a need for much substance. As for `COC(=O)CC(NC(=O)OCc1ccccc1)C(=O)NC(CC(=O)OC)C(=O)NC(CC(=O)OC)C(=O)NC(CC(=O)OC)C(=O)NC(CC(=O)OC)C(=O)NC(CC(=O)OC)C(=O)NN` (stereo unspecified) (Cbz-D(OMe)D(OMe)D(OMe)D(OMe)D(OMe)D(OMe)-NHNH2; configuration not given here), the EC50 was over 100 µM and the IC50 is over 100 µM.

Take `COC(OC)C1OCC(n2cc(F)c(=O)[nH]c2=O)C1O` (stereo unspecified): the EC50 is over 200 µM and the IC50 was over 200 µM.

In the case of `CS(=O)(=O)c1ccc(N2CC2)nn1`, the EC50 was over 200 µM and the IC50 was 89.1 µM.

`CC(C)(Oc1ccccc1)C(=O)Sc1c(-c2ccccc2)c(=O)n(-c2ccccc2)c(=S)n1-c1ccccc1`: the EC50 is over 200 µM and the IC50 worked out at 1.35 µM.

For the compound `C[N+](C)(C)CC(CC(=O)[O-])C1CC1` (stereo unspecified), the EC50 was over 1350 µM and the IC50 is over 1350 µM.

In the case of `CC(C)(C)[Si](C)(C)OC[C@@H](NC(=O)OCc1ccccc1)C(=O)O`, the EC50 was over 200 µM and the IC50 was over 200 µM.

As to `COC(C)(C)C1(O)CC[C@@H](C)CC1=O` (stereo partly specified), the EC50 was over 100 µM and the IC50 is over 100 µM.

As for `CC1C(=O)C2CC3(C)CO[C@@]2(C3O)[C@@]2(C)CC[C@@H]12` (stereo partly specified), the outcome was inactive.

Regarding `CCOC(=O)c1nc2ccc(C(F)(F)F)cc2nc1Oc1cc(OC)cc(OC)c1`, the EC50 is over 200 µM and the IC50 was over 200 µM.

Turning to `Clc1ccccc1C=NCC1CCC(CN=Cc2ccccc2Cl)CC1` (stereo unspecified), the EC50 is over 200 µM and the IC50 is 9.12 µM.

Turning to `O=S(=O)(c1ccccc1)N1CC2CC(Br)C(Br)CC21` (stereo unspecified), the EC50 was over 45.7 µM and the concentration for half-maximal inhibition (IC50) is over 45.7 µM.

On to `CNC(=O)C(C)NC(=O)C(Cc1ccccc1)NC(=O)OC(C)(C)C` (stereo unspecified), for which the EC50 was over 200 µM and the half-inhibitory concentration (IC50) is over 200 µM.

With `O=c1cc([O-])[n+](C2OC(CO)C(O)C2O)c2sccn12` (stereo unspecified), the EC50 is over 63.1 µM and the IC50 is over 63.1 µM.

For `CCOC(=O)/C(=C\c1ccc(OC)cc1)P(=O)(OCC)OCC`, the EC50 was over 380 µM and the IC50 stood at 77.6 µM.

As to `Oc1ccc2ccccc2c1C1=NNc2n[nH]c(=S)n2N1`, the EC50 was over 148 µM and the IC50 worked out at 19.1 µM.

Regarding `NCCN.O=C([O-])C(=O)[O-].O=C([O-])C(=O)[O-].[Co+3].[K+]`, the EC50 is over 372 µM and the IC50 was determined as 269 µM.

Take `CCOC(=O)c1no[n+]([O-])c1C(=O)OCC`: the EC50 is over 200 µM and the IC50 amounted to 5.75 µM.

Consider `CC[N+](CC)=c1ccc2nc3c(cc(N)c4ccccc43)oc-2c1`, for which the half-maximal effective concentration (EC50) was over 200 µM and the IC50 stood at 3.8 µM.

Take `CC(C)(C)[Si](C)(C)OCC1OC(n2ccc(N)nc2=O)C(O[Si](C)(C)C(C)(C)C)C1O[Si](C)(C)C(C)(C)C` (stereo unspecified): the EC50 is over 200 µM and the IC50 stood at 10.2 µM.

Regarding `CCN(CC)c1ccc(/C=C2/C=Cc3ccccc32)cc1`, the EC50 is over 7.24 µM and the IC50 was over 7.24 µM.

On to `CCOC(=O)NC(Nc1ccc(S(=O)(=O)Nc2ccc(OC)nn2)cc1)(C(F)(F)F)C(F)(F)F`, for which the EC50 is over 200 µM and the concentration for half-maximal inhibition (IC50) is over 200 µM.

On to `COC(=O)C1(O)CC(=O)CCC1c1ccccc1` (stereo unspecified), for which the EC50 is over 355 µM and the 50% inhibitory concentration (IC50) is over 355 µM.

As to `C=CCC(SC)C1=C(C)C(=O)c2ccccc21` (stereo unspecified), the EC50 is over 200 µM and the IC50 was 110 µM.

`CC12CCC3C(CCC4=CC(OC5OC(CO)C(O)C(O)C5O)CCC43C=O)C1(O)CCC2c1ccc(=O)oc1` (stereo unspecified): the EC50 was over 0.02 µM and the IC50 is 0.00316 µM.

For `C=C(Cl)c1c(OC)cccc1OCc1ccccc1`, the EC50 was over 200 µM and the IC50 is 97.7 µM.

Regarding `COC(=O)[C@H](Cc1ccccc1)NC(=O)OCC1OC(n2cc(C)c(=O)[nH]c2=O)CC1N=[N+]=[N-]` (stereo partly specified), the EC50 was over 200 µM and the IC50 is over 200 µM.

Take `CCOC(=O)/C=C/c1ccc(Br)cc1`: the EC50 is over 28.2 µM and the IC50 was over 28.2 µM.

Turning to `Clc1cc2c(c3ncccc13)OCN(CCc1ccccc1)C2`, the EC50 was over 200 µM and the IC50 amounted to 0.955 µM.

On to `O=[P+](O)c1cccs1`, for which the result was inactive.

Turning to `CC(=O)/C(=C/n1ccc(=O)[nH]c1=S)C(=O)Nc1ccccc1C`, the EC50 is over 200 µM and the IC50 was over 200 µM.

For `O=C1C2CCN(CC2)C1Cn1cnc2c(Cl)ncnc21` (stereo unspecified), the result was inactive.

`CCNc1cc2c(cc1O)CC[C@@H]1[C@@H]2CC[C@]2(C)[C@@H](O)CC[C@@H]12`: the EC50 is over 200 µM and the IC50 stood at 3.89 µM.

Turning to `N#Cc1c2c(c(N=P(c3ccccc3)(c3ccccc3)c3ccccc3)n3c1nc1ccccc13)CCCC2`, the EC50 was over 1.05 µM and the IC50 was over 1.05 µM.

Consider `C/C(=N/NS(=O)(=O)c1ccc(N)cc1)c1ccccc1O`, for which the EC50 is over 117 µM and the IC50 is over 117 µM.

As to `CCOC(=O)C1C(c2ccc(OC)cc2)c2c([nH]n(-c3ccccc3)c2=O)CC1(C)O` (stereo unspecified), the result was inactive.

Consider `O=C(O)c1cc(Nc2nc(Cl)nc(Cl)n2)ccc1-c1c2ccc(=O)cc-2oc2cc(O)ccc12`, for which the EC50 is 38 µM and the IC50 was determined as 692 µM.

In the case of `O=C(Nc1ccc(OCC2=NCCN2)cc1)c1ccc(C(=O)Nc2ccc(OCC3=NCCN3)cc2)cc1`, the EC50 was over 200 µM and the IC50 was over 200 µM.

As to `N=c1nc(-c2ccccc2)nc2[nH]c3c4cccc5cccc(c3nc12)c54`, the EC50 is over 200 µM and the IC50 came out at 67.6 µM.

On to `Cc1ccc(/C=C/c2nnc(N/N=C/c3ccc4c(c3)OCO4)[nH]c2=O)cc1`, for which the EC50 was over 200 µM and the IC50 is 95.5 µM.

Consider `C[Si](C)(C)[C@@]1([Se]c2ccccc2)CC[C@@H]1C(=O)c1ccccc1`, for which the EC50 is over 13.5 µM and the IC50 was over 13.5 µM.

Consider `COC1C(O)CC(OC2CC(Oc3cc4cc5c(c(O)c4c(O)c3C)C(=O)[C@@H](OC3CC(OC4CC(OC6CC(C)(O)C(OC(C)=O)C(C)O6)C(O)C(C)O4)C(O)C(C)O3)[C@H]([C@H](OC)C(=O)[C@@H](O)[C@@H](C)O)C5)OC(C)C2OC(C)=O)OC1C` (stereo partly specified), for which the EC50 is over 6.17 µM and the IC50 was 0.00195 µM.

As to `Cc1cn(C2CC(C)N(CCO)O2)c(=O)[nH]c1=O` (stereo unspecified), the EC50 was over 200 µM and the IC50 is over 200 µM.

In the case of `COc1cc2c(c3oc(C)c(C)c(=O)c13)C=CC(C)(C)O2`, the EC50 is over 200 µM and the IC50 stood at 66.1 µM.

Consider `COc1cc(Nc2nc3cc(C(F)(F)F)ccc3nc2-c2ccccc2)cc(OC)c1OC`, for which the EC50 was over 41.7 µM and the 50% inhibitory concentration (IC50) was over 41.7 µM.

As for `C=C1C(=O)O[C@H]2C1[C@H](OC(=O)/C(C)=C\COC(C)=O)C[C@]1(CO1)[C@@H]1[C@H](O)[C@H]3O[C@@]3(C)[C@@H]12` (stereo partly specified), the outcome was inactive.

Turning to `Cc1c2ccccc2c(=O)n2c(-c3ccccn3)cccc12`, the EC50 was over 200 µM and the IC50 was found to be 120 µM.

For the compound `c1ccc2c(c1)[nH]c1c2nc2ncccn21`, the result was inactive.

`O=C(O)CSc1n[nH]c(Cc2ccccc2)n1`: the EC50 is over 1000 µM and the IC50 was over 1000 µM.

Turning to `C/C(=N/NC(=S)N(Cc1ccccn1)Cc1ccccn1)c1cnccn1`, the EC50 is 0.2 µM and the IC50 is 0.339 µM.

Turning to `COc1cc(C2c3cc4c(cc3OC3(OC)COC(=O)C23)OCO4)cc(OC)c1OC` (stereo unspecified), the EC50 was over 2 µM and the half-maximal inhibitory concentration (IC50) stood at 0.24 µM.

Consider `O=C(/C=C/c1ccccc1O)C(c1ccccc1)c1ccccc1`, for which the EC50 was over 12 µM and the half-maximal inhibitory concentration (IC50) is over 12 µM.

In the case of `NC(CCCCCC(N)C(=O)O)C(=O)O` (stereo unspecified), the outcome was inactive.

`CN(C)C1C(=O)C(C(=O)NCN2CCOB(c3ccccc3)OCC2)=C(O)C2(O)C(O)=C3C(=O)C4C(O)=CC=CC4C(C)(O)C3CC12` (stereo unspecified): the EC50 was 31.6 µM and the IC50 was determined as 39.8 µM.

Consider `COC(=O)C(Cc1ccccc1)NP(=O)(O)OCC1OC(n2ccc(N)nc2=O)C(O)C1O` (stereo unspecified), for which the EC50 is over 200 µM and the IC50 came to 4.27 µM.

Turning to `Cc1nc2c(=O)[nH]c3ccc(Cl)cc3c2o1`, the EC50 is over 200 µM and the IC50 was 148 µM.

Regarding `CCCCc1ccc(-n2sc3ncc(-c4ccccc4)cc3c2=O)cc1`, the EC50 was 95.5 µM and the IC50 stood at 117 µM.

Take `CS(=O)(=O)Sc1ccccc1C(=O)O`: the EC50 is over 1070 µM and the IC50 is over 1070 µM.

Regarding `COc1c(-c2ccccc2)nc2ccc(Oc3ccccc3)nn12`, the EC50 was over 56.2 µM and the IC50 is over 56.2 µM.

In the case of `COc1cccc2c1OC(c1cccc3ccccc13)C([N+](=O)[O-])=C2` (stereo unspecified), the EC50 is over 2 µM and the IC50 amounted to 1.07 µM.

For `O=C1c2ccccc2C(=O)c2c(S)cccc21`, the EC50 is 148 µM and the IC50 is over 200 µM.

Take `CN(Cc1ccccc1)C(=NC#N)N(C)Cc1ccccc1`: the EC50 is over 170 µM and the IC50 turned out to be 129 µM.

As to `COc1cc2c(c([N+](=O)[O-])c1)NC(=O)C(C)S2` (stereo unspecified), the EC50 was over 200 µM and the IC50 is 49 µM.

For `CCCCCCCCCCCC(=O)c1c(O)cccc1O`, the EC50 is over 17.8 µM and the IC50 was found to be 15.5 µM.

On to `Cc1c(C(=O)CC(=O)C(=O)Nc2cc(Cl)ccc2Cl)[n+](=O)c2ccccc2n1[O-]`, for which the EC50 is over 8.71 µM and the IC50 is over 8.71 µM.

Turning to `Cc1ccc(C)n1-n1c(Cc2ccc(Cl)cc2)n[nH]c1=O`, the EC50 was over 200 µM and the IC50 stood at 50.1 µM.

On to `CCN(CC)C1=C(N(CC)CC)C(N(CC)CC)=C(N(CC)CC)C1=O.[C-]#[O+].[C-]#[O+].[C-]#[O+].[Fe]`, for which the EC50 is over 2.88 µM and the IC50 was over 2.88 µM.

Consider `O=C1c2cscc2C(=O)c2cscc21`, for which the EC50 was over 2 µM and the IC50 is 0.339 µM.

As to `N#CCC(O)CC#N`, the outcome was inactive.

Turning to `CSCCCNC(=O)c1csc([C@@H](CSC)NC(=O)CCNC(=O)[C@@H](NC(=O)OCC(Br)(Br)Br)C(C)O)n1` (stereo partly specified), the EC50 was over 166 µM and the IC50 was over 166 µM.

Regarding `CCCCCCCCCCCCC(Br)C(=O)OCC1OC(n2cc(C)c(=O)[nH]c2=O)CC1O` (stereo unspecified), the EC50 is over 200 µM.
